Experimental findings from ChEMBL document CHEMBL1201862, “PubChem BioAssay data set” (2004) are described below.

Common to all, as to assay: growth of human tumour cells (NCI), 48 h
The test system of assay [1] is SK-MEL-2.
Assay [2] concerns NCI-H460.
Assay [3] has as its system A498.
In assay [4] the test system is HCC 2998.
The subject of assay [5] is HCT-15.
Assay [6] relates to CAKI-1.
In assay [7] the test system is NCI-H226.
Assay [8] deals with UACC-257.
Assay [9] deals with M14.
For assay [10], the system named is MOLT-4.
Assay [11] relates to 786-0.
Assay [12] concerns HL-60.
Assay [13] relates to OVCAR-4.
In assay [14] the test system is UO-31.
Assay [15] concerns SF-539.
For assay [16], the system named is SN12C.
For assay [17], the system named is RXF 393.

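1) Cells in 96-well plates. 2) Compound, 48 h, 5 concentrations. 3) Linear interpolation between surrounding doses. 4) Unreached endpoint = highest concentration. GI50: concentration for 50% inhibition of growth.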 Calls of active or inactive are those of the source. No stated cut-off is given here; in the data, active = GI50 up to about 1.1 µM and inactive = higher.

Turning to `N#C/C(=C\c1ccc(CP(=O)(O)O)cc1)C(N)=O`, the GI50 in [1] was > 100 µM (inactive); in [2], > 100 µM (inactive); in [3] it was > 100 µM (inactive); in [4], > 100 µM (inactive); in assay [5] it was greater than 100 µM; in assay [6] it was > 100 µM (inactive). For the same molecule, the GI50 in assay [7], in assay [8], in [9], in assay [10], in [11] and in [12] was > 100 µM (inactive) throughout. For the same molecule, the GI50 in assay [13], in [14], in assay [15] and in assay [16] was > 100 µM (inactive) throughout.
With `O=C1c2ccccc2C(=O)N1CCCOCc1cnc(O)nc1O`, the GI50 is > 100 µM (inactive) in assay [17]; > 100 µM (inactive) in assay [1]; > 100 µM (inactive) in [2]; > 100 µM (inactive) in assay [3]; greater than 100 µM in assay [5]; > 100 µM (inactive) in assay [6]. Also, the GI50 in [7], in assay [8], in [9], in assay [10], in [11] and in assay [12] was > 100 µM (inactive) in each case. Moreover, the GI50 in assay [13], in assay [14], in assay [15] and in [16] was > 100 µM (inactive) throughout.
Turning to `Nc1c(-c2ccc(Cl)cc2)[n+]([O-])c2ccccc2[n+]1[O-]`, the GI50 in assay [1] was > 100 µM (inactive); in assay [2] it was 94.2 µM (inactive); in assay [3] it was 95.3 µM (inactive); in [4], 49.9 µM (inactive); in assay [5] it was 76.4 µM; in [6], > 100 µM (inactive). Further, the GI50 in assay [7] was 14.5 µM (inactive); in assay [8] it was 58.5 µM (inactive); in assay [9] it was > 100 µM (inactive); in assay [10], 27.3 µM (inactive); in assay [11], > 100 µM (inactive); in assay [12], 32.4 µM (inactive). The GI50 is 69.3 µM (inactive) in assay [13], 5.86 µM (inactive) in [14], > 100 µM (inactive) in assay [15] and 95.1 µM (inactive) in assay [16].
As to `Cc1cc(NS(=O)(=O)c2ccc(NC(=O)c3cccc4c(Nc5ccc(S(=O)(=O)Nc6cc(C)on6)cc5)c5ccc(Cl)cc5nc34)cc2)no1`, the GI50 was 29.2 µM (inactive) in assay [17]; > 100 µM (inactive) in assay [1]; 65 µM (inactive) in [2]; 55 µM (inactive) in assay [3]; 56 µM (inactive) in [4]; 45.9 µM in assay [5]. The GI50 in [6] is > 100 µM (inactive); in assay [8], > 100 µM (inactive); in assay [9], 32.1 µM (inactive); in [10], 56 µM (inactive); in [11] it was > 100 µM (inactive); in [12] it was 35 µM (inactive). For the same molecule, the GI50 in assay [13] was 49.5 µM (inactive); in assay [14] it was 25.3 µM (inactive); in assay [15], 37.7 µM (inactive); in assay [16], 51.2 µM (inactive).
As for `CC1=C(c2cc(C(=O)Nc3ccc(Cl)cc3)nc(S)n2)Sc2ccccc2N1`, the GI50 was > 100 µM (inactive) in assay [17]; > 100 µM (inactive) in [1]; > 100 µM (inactive) in assay [2]; > 100 µM (inactive) in [3]; > 100 µM (inactive) in [4]; greater than 100 µM in assay [5]. The GI50 in assay [6], in [8], in assay [9], in assay [11], in [12] and in assay [13] was > 100 µM (inactive) each time. Also, the GI50 in [14], in assay [15] and in assay [16] was > 100 µM (inactive) throughout.
